According to patent publication US10179791B2, “Spiro-cyclic amine derivatives as S1P modulators” (AbbVie B.V., priority 2010, dated 2019):
Counter-ions that a name gives are not always drawn. Like-named read-outs stand apart in the source and are kept apart here.

Key:
Format in all cases: cell-based
human S1P1 = human S1P1 (Homo sapiens (Human), UniProt P21453); assay: In vitro functional activity (agonism) on human S1P1 receptors (method A), CHO-K1-human-S1P1-Aequorin assay
Source text: In Vitro Functional Activity (Agonism) on Human S1P1 Receptors (Method A)
(§1) Human-S1P1-Aequorin cells express mitochondrial targeted apo-Aequorin. Cells have to be loaded with coelanterazine, in order to reconstitute active Aequorin. After binding of agonists to the human S1P1 receptor the intracellular calcium concentration increases and binding of calcium to the apo-Aequorin/coelenterazine complex leads to an oxidation reaction of coelenterazine, which results in the production of apo-Aequorin, coelenteramide, CO2 and light ([…]max 469 nm). This luminescent response is dependent on the agonist concentration. Luminescence is measured using the MicroBeta Jet (Perkin Elmer). Agonistic effects of compounds are expressed as pEC50. Compounds were tested at a 10 points half log concentration range, and 2 independent experiments were performed in single point's measurements.

human S1P3 receptor = human S1P3 receptor (Homo sapiens (Human), UniProt Q99500); assay: In vitro functional activity (agonism) on human S1P3 receptors, CHO-human-S1P3-Aequorin assay; conditions: aequorin luminescence, CHO K1 cells, 3 independent experiments, read-out: S1P3 pEC50 (converted)
Source text: In Vitro Functional Activity (Agonism) on Human S1P3 Receptors
The CHO-human-S1P3-Aeqorin assay (CHO/Gα16/AEQ/h-S1P3) was established at Solvay Pharmaceuticals. The plasmid DNA coding for the S1P3 receptor (accession number in GenBank NM_005226 was purchased from UMR cDNA resource Centre (Rolla, Mo.). The pcDNA3.1/hS1P3 construct carrying the mitochondrially targeted apo-Aeqorin and Gal6 protein was transfected in CHO K1 cell-line.
as §1, with “Human-S1P3-Aequorin cells” for “Human-S1P1-Aequorin cells”, “human S1P3” for “human S1P1”, “and 3” for “and 2”

human S1P5 receptor = human S1P5 receptor (Homo sapiens (Human), UniProt Q9H228); assay: In vitro functional activity (agonism) on human S1P5 receptors, CHO-human-S1P5-Aequorin assay; conditions: aequorin luminescence, CHO cells, 3 independent experiments
Source text: In Vitro Functional Activity (Agonism) on Human S1P5 Receptors
as §1, with “The CHO-human-S1P5-Aeqorin assay was bought from Euroscreen, Brussels (Euroscreen, Technical dossier, Human Lysophospholid S1P5 (Edg8) receptor, DNA clone and CHO AequoScreen™ recombinant cell-line, catalog no: ES-593-A, September 2006). Human-S1P5-Aequorin cells” for “Human-S1P1-Aequorin cells”, “human S1P5” for “human S1P1”, “and 3” for “and 2”

[1] = agonism, determined using method A (aequorin luminescence, CHO-K1 cells), 2 independent experiments, read-out: S1P1^A pEC50 (converted)

human S1P3 receptor, sequence (Q99500 whole entry): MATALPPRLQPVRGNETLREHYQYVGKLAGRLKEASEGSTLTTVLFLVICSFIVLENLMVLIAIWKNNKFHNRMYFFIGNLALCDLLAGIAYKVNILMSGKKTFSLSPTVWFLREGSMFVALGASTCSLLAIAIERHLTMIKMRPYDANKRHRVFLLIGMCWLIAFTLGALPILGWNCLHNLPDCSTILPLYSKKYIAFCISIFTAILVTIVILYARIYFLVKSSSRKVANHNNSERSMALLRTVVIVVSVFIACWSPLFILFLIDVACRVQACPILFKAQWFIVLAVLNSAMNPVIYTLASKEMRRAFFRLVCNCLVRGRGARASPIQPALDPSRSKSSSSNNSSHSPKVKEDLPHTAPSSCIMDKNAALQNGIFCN
human S1P1, sequence (P21453 whole entry): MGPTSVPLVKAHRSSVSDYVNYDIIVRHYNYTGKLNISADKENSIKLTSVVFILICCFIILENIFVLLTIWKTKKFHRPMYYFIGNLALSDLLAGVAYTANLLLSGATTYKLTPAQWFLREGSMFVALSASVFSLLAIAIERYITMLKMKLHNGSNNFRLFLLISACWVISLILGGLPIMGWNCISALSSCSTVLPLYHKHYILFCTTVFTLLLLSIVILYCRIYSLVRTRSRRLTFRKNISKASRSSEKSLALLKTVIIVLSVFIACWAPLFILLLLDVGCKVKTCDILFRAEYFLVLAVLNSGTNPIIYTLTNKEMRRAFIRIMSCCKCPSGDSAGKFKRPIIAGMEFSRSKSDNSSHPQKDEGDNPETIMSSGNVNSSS
human S1P5 receptor, sequence (Q9H228 whole entry): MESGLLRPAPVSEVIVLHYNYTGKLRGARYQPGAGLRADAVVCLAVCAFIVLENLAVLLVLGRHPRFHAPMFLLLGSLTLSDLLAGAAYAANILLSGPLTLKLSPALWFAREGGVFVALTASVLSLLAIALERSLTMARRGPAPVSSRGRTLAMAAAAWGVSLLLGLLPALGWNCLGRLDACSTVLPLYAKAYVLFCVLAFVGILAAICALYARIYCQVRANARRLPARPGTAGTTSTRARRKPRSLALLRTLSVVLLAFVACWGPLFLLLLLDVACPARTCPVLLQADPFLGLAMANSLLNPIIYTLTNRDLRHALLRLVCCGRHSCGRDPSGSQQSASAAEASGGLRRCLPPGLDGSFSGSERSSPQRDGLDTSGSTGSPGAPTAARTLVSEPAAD

SMILES | EC50 (human S1P1) [µM] | EC50 (human S1P3 receptor) [µM] | S1P5 pEC50 (human S1P5 receptor) | EC50 (human S1P1; [1]) [µM]
O=C(O)CCN1CCC2(CC1)COc1cc(OCc3c(Cl)cccc3Cl)ccc12 [Compound 29, 3-{6-[(2,6-Dichlorophenyl)methoxy]-2H-spiro[1-benzofuran-3,4′-piperidine]-1′-yl}propanoic acid hydrochloride] | > 10 | > 31.6 | 7 | 
O=C(O)CCN1CCC2(CC1)COc1cc(OCc3c(Cl)cccc3C3CC3)ccc12 [Compound 75, 3-{6-[(2-Chloro-6-cyclopropyl)phenyl)methoxy]-2H-spiro[1-benzofuran-3,4′-piperidine]-1′-yl}propanoic acid hydrochloride] |  | > 10 | 7.7 | 2.51
O=C(O)CCN1CCC2(CC1)COc1cc(OCc3c(Cl)cccc3OC(F)(F)F)ccc12 [Compound 77, 3-(6-{[2-Chloro-6-(trifluoromethoxy)phenyl]methoxy}-2H-spiro[1-benzofuran-3,4′-piperidine]-1′-yl)propanoic acid hydrochloride] |  | > 10 | 7.6 | 6.31
CC(CN1CCC2(CC1)COc1cc(OCc3c(Cl)cc(Cl)cc3Cl)ccc12)C(=O)O (centres unmarked) [Compound 102, 2-Methyl-3-{6-[(2,4,6-trichlorophenyl)methoxy]-2H-spiro[1-benzofuran-3,4′-piperidine]-1′-yl}propanoic acid hydrochloride] |  |  | 7.8 | 0.631
O=C(O)CN1CCC2(CC1)COc1cc(OCc3c(Cl)cc(Cl)cc3Cl)ccc12 [Compound 110, 2-{6-[(2,4,6-Trichlorophenyl)methoxy]-2H-spiro[1-benzofuran-3,4′-piperidine]-1′-yl}acetic acid hydrochloride] |  | 2 | 7.8 | > 10
CCc1cccc(Cl)c1COc1ccc2c(c1)OCC21CCN(CC(=O)O)CC1 [Compound 111, 2-{6-[(2-Chloro-6-ethylphenyl)methoxy]-2H-spiro[1-benzofuran-3,4′-piperidine]-1′-yl}acetic acid hydrochloride] |  | 2 | 7.6 | > 10
O=C(O)CCCN1CCC2(CC1)COc1cc(OCc3c(Cl)cccc3C3CC3)ccc12 [Compound 121, 4-{6-[(2-Chloro-6-cyclopropylphenyl)methoxy]-2H-spiro[1-benzofuran-3,4′-piperidine]-1′-yl}butanoic acid hydrochloride] |  | > 10 | 7.1 | 5.01
CC(C)c1cccc(Cl)c1COc1ccc2c(c1)OCC21CCN(CCCC(=O)O)CC1 [Compound 127, 4-(6-{[2-Chloro-6-(propan-2-yl)phenyl]methoxy}-2H-spiro[1-benzofuran-3,4′-piperidine]-1′-yl)butanoic acid hydrochloride] |  | 2.51 | 6.9 | 7.94
O=C(O)CCN1CCC2(CC1)COc1c2ccc(OCc2c(Cl)cc(Cl)cc2Cl)c1F [Compound 132, 3-{7-Fluoro-6-[(2,4,6-trichlorophenyl)methoxy]-2H-spiro[1-benzofuran-3,4′-piperidine]-1′-yl}propanoic acid hydrochloride] |  | 2 | 8.3 | > 31.6
CCc1cccc(Cl)c1COc1ccc2c(c1F)OCC21CCN(CCC(=O)O)CC1 [Compound 136, 3-{6-[(2-Chloro-6-ethylphenyl)methoxy]-7-fluoro-2H-spiro[1-benzofuran-3,4′-piperidine]-1′-yl}propanoic acid hydrochloride] |  | > 10 | 8 | 1.26
CCc1cccc(Cl)c1CSc1ccc2c(c1)OCC21CCN(CCC(=O)O)CC1 [Compound 140, 3-(6-{[(2-Chloro-6-ethylphenyl)methyl]sulfanyl}-2H-spiro[1-benzofuran-3,4′-piperidine]-1′-yl}propanoic acid hydrochloride] | 0.158 | > 10 | 8.5 | 
O=C(O)CCN1CCC2(CC1)COc1cc(SCc3c(Cl)cccc3C3CC3)ccc12 [Compound 141, 3-(6-{[(2-Chloro-6-cyclopropylphenyl)methyl]sulfanyl}-2H-spiro[1-benzofuran-3,4′-piperidine]-1′-yl}propanoic acid hydrochloride] |  | > 10 | 8.2 | 0.316
O=C(O)CCN1CCC2(CC1)COc1cc(SCc3c(Cl)cc(Cl)cc3Cl)ccc12 [Compound 143, 3-(6-{[(2,4,6-Trichlorophenyl)methyl]sulfanyl}-2H-spiro[1-benzofuran-3,4′-piperidine]-1′-yl}propanoic acid hydrochloride] |  |  | 7.5 | > 10
CC(CN1CCC2(CC1)COc1cc(SCc3c(Cl)cccc3Cl)ccc12)C(=O)O (centres unmarked) [Compound 153, 3-(6-{[(2,6-Dichlorophenyl)methyl]sulfanyl}-2H-spiro[1-benzofuran-3,4′-piperidine]-1′-yl}-2-methylpropanoic acid hydrochloride] |  |  | 7.9 | 1
O=C(O)CN1CCC2(CC1)COc1cc(C3CC3c3c(Cl)cccc3Cl)ccc12 (centres unmarked) [Compound 176, 2-{6-[2-(2,6-Dichlorophenyl)cyclopropyl]-2H-spiro[1-benzo-furan-3,4′-piperidine]-1′-yl}acetic acid hydrochloride] |  | > 10 | 7.6 | > 31.6
O=C(O)CCN1CCC2(CC1)OCc1cc(OCc3c(Cl)cccc3Cl)ccc12 [Compound 203, 3-{5-[(2,6-Dichlorophenyl)methoxy]-3-H-spiro[2-benzofuran-1,4′-piperidine]-1′-yl}propanoic acid hydrochloride] |  | > 10 | 6.7 | > 10
CC(C)c1cccc(F)c1COc1ccc2c(c1)OCC21CCN(CCC(=O)O)CC1 [Compound 252, 3-(6-{[2-fluoro-6-(propan-2-yl)phenyl]methoxy}-2H-spiro[1-benzofuran-3,4′-piperidine]-1′-yl)propanoic acid] |  | 5.01 |  | 
O=C(O)CCN1CCC2(CC1)COc1cc(OCc3c(F)cccc3C3CC3)ccc12 [Compound 253, 3-{6-[(2-cyclopropyl-6-fluorophenyl)methoxy]-2H-spiro[1-benzofuran-3,4′-piperidine]-1′-yl}propanoic acid] |  | > 10 | 7.7 | 2.51
CCc1cccc(CC)c1COc1ccc2c(c1)OCC21CCN(CCC(=O)O)CC1 [Compound 258, 3-{6-[(2,6-diethylphenyl)methoxy]-2H-spiro[1-benzo-furan-3,4′-piperidine]-1′-yl}propanoic acid] | 2.51 | > 10 | 7.8 | 
CCCCCCCOc1ccc2c(c1F)OCC21CCN(CCC(=O)O)CC1 [Compound 276, 3-[7-fluoro-6-(heptyloxy)-2H-spiro[1-benzofuran-3,4′-piperidine]-1′-yl]propanoic acid] |  | > 10 | 7.1 | > 31.6
CCCCCCCCOc1ccc2c(c1F)OCC21CCN(CCC(=O)O)CC1 [Compound 277, 3-[7-fluoro-6-(octyloxy)-2H-spiro[1-benzofuran-3,4′-piperidine]-1′-yl]propanoic acid] |  | > 10 | 7.8 | 0.0794
CCc1cccc(Cl)c1CSc1ccc2c(c1F)OCC21CCN(CCC(=O)O)CC1 [Compound 296, hydrochloride] |  | > 10 | 8.7 | 
O=C(O)CCN1CCCC2(COc3cc(OCc4c(Cl)cccc4C(F)(F)F)ccc32)C1 (centres unmarked) [Compound 326, 3-(6-{[2-Chloro-6-(trifluoromethyl)phenyl]methoxy}-2H-spiro[1-benzofuran-3,3′-piperidine]-1′-yl)propanoic acid] |  | > 10 |  | > 31.6
